We go through 24 molecules from patent US8129398B2 (priority 2008, dated 2012).

Where only a bound is given, the exact number is not on record here.

In the experiment the target is T1, HIV-integrase (Human immunodeficiency virus type 1 group M subtype B, UniProt P12497).
T1 construct: Recombinant integrase (0.26 ng) was incubated with the beads
In words: HIV-Integrase Inhibition Activity (SPA bead integration assay with P33 labeled target DNA). The format is biochemical. The note with it: recombinant integrase, class symbols; read-out: in vitro activity. The procedure, abridged: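 Biotinylated substrate DNA on streptavidin SPA beads loaded with recombinant integrase (90 min, 37° C), washed, then inhibitor plus 0.1 fmol P33-labeled target DNA added. Reaction stopped with 10 mM EDTA; integration measured as CPM by scintillation, giving IC50 ranks.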
Take `Cc1cc(CNC(=O)c2nc3n(c(=O)c2O)CC2CCC3(NC(=O)C3(c4ccccn4)CC3)CC2)ccc1F` [Example 304, 7,10-Ethanopyrimido[1,2-a]azepine-2-carboxamide, N-[(4-fluoro-3-methylphenyl)methyl]-4,6,7,8,9,10-hexahydro-3-hydroxy-4-oxo-10-[[[1-(2-pyridinyl)cyclopropyl]carbonyl]amino]-]: the IC50 was less than 10 nM. Consider `Cc1cc(CNC(=O)c2nc3n(c(=O)c2O)CC2CCC3(NC(=O)C3=NNC(=O)CC3)CC2)ccc1F` [Example 305, 7,10-Ethanopyrimido[1,2-a]azepine-2-carboxamide, N-[(4-fluoro-3-methylphenyl)methyl]-4,6,7,8,9,10-hexahydro-3-hydroxy-4-oxo-10-[[(1,4,5,6-tetrahydro-6-oxo-3-pyridazinyl)carbonyl]amino]-], for which the IC50 was less than 10 nM.

For `CN(C)C(=O)C(=O)NC12CCC(CC1)Cn1c2nc(C(=O)NCc2ccc(F)cc2-c2ccccc2)c(O)c1=O` [Example 307, Ethanediamide, N′-[2-[[[(5-fluoro/[1,1′-biphenyl]-2-yl)methyl]amino]carbonyl]-6,7,8,9-tetrahydro-3-hydroxy-4-oxo-7,10-ethanopyrimido[1,2-a]azepin-10(4H)-yl]-N,N-dimethyl-], the IC50 was less than 10 nM.

As to `COc1c(C(=O)NCc2ccc(F)cc2)nc2n(c1=O)CC1CCC2(NC(=O)CCC(=O)O)CC1` [Example 308, Butanoic acid, 4-[[2-[[[(4-fluorophenyl)methyl]amino]carbonyl]-6,7,8,9-tetrahydro-3-methoxy-4-oxo-7,10-ethanopyrimido[1,2-a]azepin-10(4H)-yl]amino]-4-oxo-], the IC50 was more than 100 nM. With `Cc1cc(CNC(=O)c2nc3n(c(=O)c2O)CC2CCC3(NC(=O)c3ccncc3)CC2)ccc1F` [Example 309, 7,10-Ethanopyrimido[1,2-a]azepine-2-carboxamide, N-[(4-fluoro-3-methylphenyl)methyl]-4,6,7,8,9,10-hexahydro-3-hydroxy-4-oxo-10-[(4-pyridinylcarbonyl)amino]-], the IC50 is less than 10 nM. In the case of `CN(C(=O)c1ccncc1)C12CCC(CC1)Cn1c2nc(C(=O)NCc2ccc(F)cc2)c(O)c1=O` [Example 310, 7,10-Ethanopyrimido[1,2-a]azepine-2-carboxamide, N-[(4-fluorophenyl)methyl]-4,6,7,8,9,10-hexahydro-3-hydroxy-10-[methyl(4-pyridinylcarbonyl)amino]-4-oxo-], the IC50 was less than 10 nM. In the case of `O=C(NC12CCC(CC1)Cn1c2nc(C(=O)NCc2ccc(F)cc2)c(O)c1=O)c1ncccn1` [Example 311, 7,10-Ethanopyrimido[1,2-a]azepine-2-carboxamide, N-[(4-fluorophenyl)methyl]-4,6,7,8,9,10-hexahydro-3-hydroxy-4-oxo-10-[(2-pyrimidinylcarbonyl)amino]-], the IC50 was less than 10 nM. For `Cc1cc(CNC(=O)c2nc3n(c(=O)c2O)CC2CCC3(NC(=O)c3cccnc3)CC2)ccc1F` [Example 312, 7,10-Ethanopyrimido[1,2-a]azepine-2-carboxamide, N-[(4-fluoro-3-methylphenyl)methyl]-4,6,7,8,9,10-hexahydro-3-hydroxy-4-oxo-10-[(3-pyridinylcarbonyl)amino]-], the IC50 is less than 10 nM. As to `Cc1cc(CNC(=O)c2nc3n(c(=O)c2O)CC2CCC3(NC(=O)c3ccccn3)CC2)ccc1F` [Example 313, 7,10-Ethanopyrimido[1,2-a]azepine-2-carboxamide, N-[(4-fluoro-3-methylphenyl)methyl]-4,6,7,8,9,10-hexahydro-3-hydroxy-4-oxo-10-[(2-pyridinylcarbonyl)amino]-], the IC50 was less than 10 nM. In the case of `O=C(NC12CCC(CC1)Cn1c2nc(C(=O)NCc2ccc(F)cc2)c(O)c1=O)c1cnc2ccccc2c1` [Example 315, 7,10-Ethanopyrimido[1,2-a]azepine-2-carboxamide, N-[(4-fluorophenyl)methyl]-4,6,7,8,9,10-hexahydro-3-hydroxy-4-oxo-10-[(3-quinolinylcarbonyl)amino]-], the IC50 was less than 10 nM. As to `O=C(NC12CCC(CC1)Cn1c2nc(C(=O)NCc2ccc(F)cc2)c(O)c1=O)c1ccnc(OCC(F)(F)F)c1` [Example 316, 7,10-Ethanopyrimido[1,2-a]azepine-2-carboxamide, N-[(4-fluorophenyl)methyl]-4,6,7,8,9,10-hexahydro-3-hydroxy-4-oxo-10-[[[2-(2,2,2-trifluoroethoxy)-4-pyridinyl]carbonyl]amino]-], the IC50 is less than 10 nM. For `O=C(NC12CCC(CC1)Cn1c2nc(C(=O)NCc2ccc(F)cc2)c(O)c1=O)c1ccnc(N2CCOCC2)c1` [Example 317, 7,10-Ethanopyrimido[1,2-a]azepine-2-carboxamide, N-[(4-fluorophenyl)methyl]-4,6,7,8,9,10-hexahydro-3-hydroxy-10-[[[2-(4-morpholinyl)-4-pyridinyl]carbonyl]amino]-4-oxo-], the IC50 was less than 10 nM. The figure for `CC(=O)Nc1cc(C(=O)NC23CCC(CC2)Cn2c3nc(C(=O)NCc3ccc(F)cc3)c(O)c2=O)ccn1` [Example 318, 7,10-Ethanopyrimido[1,2-a]azepine-2-carboxamide, 10-[[[2-(acetylamino)-4-pyridinyl]carbonyl]amino]-N-[(4-fluorophenyl)methyl]-4,6,7,8,9,10-hexahydro-3-hydroxy-4-oxo-] is less than 10 nM; for `Cc1cc(CNC(=O)c2nc3n(c(=O)c2O)CC2CCC3(N(C)C(=O)c3cccnc3)CC2)ccc1F` [Example 319, 7,10-Ethanopyrimido[1,2-a]azepine-2-carboxamide, N-[(4-fluoro-3-methylphenyl)methyl]-4,6,7,8,9,10-hexahydro-3-hydroxy-10-[methyl(3-pyridinylcarbonyl)amino]-4-oxo-] it is less than 10 nM.

Consider `CC(=O)Nc1ccc(C(=O)NC23CCC(CC2)Cn2c3nc(C(=O)NCc3ccc(F)cc3)c(O)c2=O)cn1` [Example 320, 7,10-Ethanopyrimido[1,2-a]azepine-2-carboxamide, 10-[[[6-(acetylamino)-3-pyridinyl]carbonyl]amino]-N-[(4-fluorophenyl)methyl]-4,6,7,8,9,10-hexahydro-3-hydroxy-4-oxo-], for which the IC50 was less than 10 nM.

Turning to `CC(=O)Nc1cncc(C(=O)NC23CCC(CC2)Cn2c3nc(C(=O)NCc3ccc(F)cc3)c(O)c2=O)c1` [Example 321, 7,10-Ethanopyrimido[1,2-a]azepine-2-carboxamide, 10-[[[5-(acetylamino)-3-pyridinyl]carbonyl]amino]-N-[(4-fluorophenyl)methyl]-4,6,7,8,9,10-hexahydro-3-hydroxy-4-oxo-], the IC50 is less than 10 nM. Take `CN(C(=O)c1cccnc1)C12CCC(CC1)Cn1c2nc(C(=O)NCc2ccc(F)cc2)c(O)c1=O` [Example 322, 7,10-Ethanopyrimido[1,2-a]azepine-2-carboxamide, N-[(4-fluorophenyl)methyl]-4,6,7,8,9,10-hexahydro-3-hydroxy-10-[methyl(3-pyridinylcarbonyl)amino]-4-oxo]: the IC50 is less than 10 nM. As to `O=C(NC12CCC(CC1)Cn1c2nc(C(=O)NCc2ccc(F)cc2)c(O)c1=O)c1ccc(C(F)(F)F)nc1` [Example 323, 7,10-Ethanopyrimido[1,2-a]azepine-2-carboxamide, N-[(4-fluorophenyl)methyl]-4,6,7,8,9,10-hexahydro-3-hydroxy-4-oxo-10-[[[6-(trifluoromethyl)-3-pyridinyl]carbonyl]amino]-], the IC50 is less than 10 nM. Consider `O=C(Nc1ccccn1)NC12CCC(CC1)Cn1c2nc(C(=O)NCc2ccc(F)cc2)c(O)c1=O` [Example 324, 7,10-Ethanopyrimido[1,2-a]azepine-2-carboxamide, N-[(4-fluorophenyl)methyl]-4,6,7,8,9,10-hexahydro-3-hydroxy-4-oxo-10-[[(2-pyridinylamino)carbonyl]amino]-], for which the IC50 was less than 10 nM. The figure for `Cc1cc(CNC(=O)c2nc3n(c(=O)c2O)CC2CCC3(NC(=O)Nc3ccccn3)CC2)ccc1F` [Example 325, 7,10-Ethanopyrimido[1,2-a]azepine-2-carboxamide, N-[(4-fluoro-3-methylphenyl)methyl]-4,6,7,8,9,10-hexahydro-3-hydroxy-4-oxo-10-[[(2-pyridinylamino)carbonyl]amino]-] is less than 10 nM; for `Cc1cc(CNC(=O)c2nc3n(c(=O)c2O)CC2CCC3(NC(=O)Nc3cccnc3)CC2)ccc1F` [Example 326, 7,10-Ethanopyrimido[1,2-a]azepine-2-carboxamide, N-[(4-fluoro-3-methylphenyl)methyl]-4,6,7,8,9,10-hexahydro-3-hydroxy-4-oxo-10-[[(3-pyridinylamino)carbonyl]amino]-] it is less than 10 nM; for `CNC(=O)NC12CCC(CC1)Cn1c2nc(C(=O)NCc2ccc(F)c(C)c2)c(O)c1=O` [Example 327, 7,10-Ethanopyrimido[1,2-a]azepine-2-carboxamide, N-[(4-fluoro-3-methylphenyl)methyl]-4,6,7,8,9,10-hexahydro-3-hydroxy-10-[[(methylamino)carbonyl]amino]-4-oxo-] it is less than 10 nM. For the molecule `CN(C(=O)N(C)C12CCC(CC1)Cn1c2nc(C(=O)NCc2ccc(F)cc2)c(O)c1=O)c1ccccn1` [Example 328, 7,10-Ethanopyrimido[1,2-a]azepine-2-carboxamide, N-[(4-fluorophenyl)methyl]-4,6,7,8,9,10-hexahydro-3-hydroxy-10-[methyl[(methyl-2-pyridinylamino)carbonyl]amino]-4-oxo-], the IC50 lay in the range of 10 to 100 nM. With `Cc1cc(CNC(=O)c2nc3n(c(=O)c2O)CC2CCC3(NC(=O)N(C)c3ccccn3)CC2)ccc1F` [Example 329, 7,10-Ethanopyrimido[1,2-a]azepine-2-carboxamide, N-[(4-fluoro-3-methylphenyl)methyl]-4,6,7,8,9,10-hexahydro-3-hydroxy-10-[[(methyl-2-pyridinylamino)carbonyl]amino]-4-oxo-], the IC50 was less than 10 nM.
